Experimental data: patent publication US20230414700A1, “TG2 INHIBITORS FOR IMPROVING MUCOCILIARY CLEARANCE IN RESPIRATORY DISEASES” (INSERM (INSTITUT NATIONAL DE LA SANTÉ ET DE LA RECHERCHE …, priority 2020, published 2023)
“Also recorded” adds a separate entry of the source. Square brackets hold non-standard residues; d marks the D form. Peptide text beside a SMILES is read from it. * marks the point of attachment. ξ: configuration not given here. DON = [N-]=[N+]=CC(=O)CC[C@H](N)C(=O)O; Ile(3ξ) = CCC(C)[C@H](N)C(=O)O; Cbz = O=C(OCc1ccccc1)*

Key:
[1] = tested on: IL-13-stimulated hypersecretory epithelia; assay: Mucociliary clearance by video microscopy using fluorescent microspheres; format: cell-based; settings: 30-second image sequence, n=2
Procedure: The final image from a 30-second image sequence (every 5 ms) is shown (ImageJ, Z Project). B: Quantification of travelled distance (ImageJ, Plugin MTrack3). Median values are shown. n=2.
(§1) Methods: The bronchial epithelium from asthmatic patients, cystic fibrosis or control subjects was reconstituted in vitro by culturing cells at the air-liquid interface. Hyper secretory differentiation was modeled by exposing control bronchial epithelial to IL-13. Expression of TG2 and MUC5AC was assessed by RT-qPCR and immunohistochemistry/immunofluorescence. Mucin modification by TG2 was evaluated by BAP incorporation and Western-blot analysis. Mucus tethering to the apical surface was studied by detecting MUC5AC after extensive apical washes with PBS. The role of TG2 was evaluated using the pharmacological inhibitor ZDON. Mucociliary clearance was evaluated by video microscopy using fluorescent microspheres.

[2] = tested on: ALI-regenerated hypersecretory epithelia; assay: Mucus (MUC5AC) tethering to the apical surface after extensive apical washes with PBS, immunofluorescence; format: cell-based; settings: IL-13-induced hypersecretory bronchial epithelium reconstituted in vitro at air-liquid interface; n=2
Excerpt: Whole-mount images represent stacks from optical sections done through the mucus (parallel to the plane of the epithelium). epi, epithelium. Extracellular mucus was quantified after beta-tubulin staining to delineate cell apex, and expressed as sum intensities (in […]) (n=2).
as §1

**Q.** How did the “Mucociliary clearance (travelled distance of fluorescent microspheres)” value [1] turn out when `CCC(C)[C@H](NC(=O)[C@H](CCC(N)=O)NC(=O)[C@H](CCC(=O)C=[N+]=[N-])NC(=O)OCc1ccccc1)C(=O)N[C@H](C(=O)OC)C(C)C` (some centres unmarked) [ZDON] (Cbz-[DON]Q[Ile(3ξ)]V-OMe) was run?
**A.** The value was “tends to ameliorate mucociliary clearance”.

**Q.** And the “MUC5AC tethering to the apical surface of hypersecretory epithelia” value [2]?
**A.** Its value is “decreases MUC5AC tethering; also recorded: blocked”.
